Test results taken from the NIST ThermoML archive (doi:10.1016/j.fluid.2007.09.028).
Numbers after ± are expanded uncertainties.

Legend:
[1] = xn = mol fraction of the nth substance listed; conditions: 101 kPa, Liquid, x1 = 1
[2] = 101 kPa, Liquid

SMILES | mass density ([1]; 288.15 K) [kg/m3] | mass density ([1]; 293.15 K) [kg/m3] | mass density ([1]; 298.15 K) [kg/m3] | mass density ([1]; 303.15 K) [kg/m3] | mass density ([1]; 308.15 K) [kg/m3] | mass density ([1]; 313.15 K) [kg/m3] | mass density ([1]; 318.15 K) [kg/m3] | mass density ([1]; 323.15 K) [kg/m3] | mass density ([2]; 288.15 K) [kg/m3] | mass density ([2]; 293.15 K) [kg/m3] | mass density ([2]; 298.15 K) [kg/m3] | mass density ([2]; 303.15 K) [kg/m3] | mass density ([2]; 308.15 K) [kg/m3] | mass density ([2]; 313.15 K) [kg/m3] | mass density ([2]; 318.15 K) [kg/m3] | mass density ([2]; 323.15 K) [kg/m3]
CCCCO [butan-1-ol] + Clc1ccccc1 | 813.373 ± 0.45 | 809.573 ± 0.45 | 805.762 ± 0.46 | 801.923 ± 0.47 | 798.053 ± 0.47 | 794.147 ± 0.48 |  |  |  |  |  |  |  |  |  | 
CCCCCO [pentan-1-ol] + Clc1ccccc1 | 818.282 ± 0.54 | 814.635 ± 0.55 | 810.968 ± 0.55 | 807.278 ± 0.55 | 803.558 ± 0.56 | 799.817 ± 0.56 |  |  |  |  |  |  |  |  |  | 
CCCO [propan-1-ol] + Clc1ccccc1 | 807.69 ± 0.46 | 803.703 ± 0.46 | 799.692 ± 0.47 | 795.65 ± 0.47 | 791.576 ± 0.48 | 787.466 ± 0.49 |  |  |  |  |  |  |  |  |  | 
CCC(C)O (stereo unspecified) [butan-2-ol] + Clc1ccccc1 | 810.689 ± 0.55 | 806.646 ± 0.56 | 802.528 ± 0.56 | 798.326 ± 0.56 | 794.03 ± 0.57 | 789.632 ± 0.58 |  |  |  |  |  |  |  |  |  | 
CC(C)(C)O [2-methylpropan-2-ol] + Clc1ccccc1 |  |  |  | 775.412 ± 0.49 | 770.193 ± 0.49 | 764.884 ± 0.5 | 759.488 ± 0.51 | 754.015 ± 0.52 |  |  |  |  |  |  |  | 
CCCCO [butan-1-ol] |  |  |  |  |  |  |  |  | 813.373 ± 0.45 | 809.573 ± 0.45 | 805.762 ± 0.46 | 801.923 ± 0.47 | 798.053 ± 0.47 | 794.147 ± 0.48 |  | 
CCCCCO [pentan-1-ol] |  |  |  |  |  |  |  |  | 818.282 ± 0.54 | 814.635 ± 0.55 | 810.968 ± 0.55 | 807.278 ± 0.55 | 803.558 ± 0.56 | 799.817 ± 0.56 |  | 
CCC(C)O (stereo unspecified) [butan-2-ol] |  |  |  |  |  |  |  |  | 810.689 ± 0.55 | 806.646 ± 0.56 | 802.528 ± 0.56 | 798.326 ± 0.56 | 794.03 ± 0.57 | 789.632 ± 0.58 |  | 
Clc1ccccc1 [chlorobenzene] |  |  |  |  |  |  |  |  | 1111.81 ± 0.3 | 1106.43 ± 0.29 | 1101.04 ± 0.28 | 1095.64 ± 0.28 | 1090.23 ± 0.27 | 1084.82 ± 0.26 | 1079.42 ± 0.25 | 1073.97 ± 0.24
CC(C)(C)O [2-methylpropan-2-ol] |  |  |  |  |  |  |  |  |  |  |  | 775.412 ± 0.49 | 770.193 ± 0.49 | 764.884 ± 0.5 | 759.488 ± 0.51 | 754.015 ± 0.52
CCCO [propan-1-ol] |  |  |  |  |  |  |  |  | 807.69 ± 0.46 | 803.703 ± 0.46 | 799.692 ± 0.47 | 795.65 ± 0.47 | 791.576 ± 0.48 | 787.466 ± 0.49 |  | 
